{"source": "ChEMBL document CHEMBL1157539", "about": "“Thousands of chemical starting points for antimalarial lead identification” (Nature, 2010)"}
{"tested_on": "Plasmodium falciparum", "assay": "(§1) GSK_TCMDC: Inhibition of Plasmodium falciparum 3D7 in whole erythrocytes, using parasite LDH activity as an index of growth.", "assay_type": "functional, organism-based", "settings": "not given", "units": {"XC50": "nM"}}
{"molecule": "O=C(/C=C/c1ccc([N+](=O)[O-])cc1)NC1CCC(CN2CCC(c3c[nH]c4ccccc34)CC2)CC1", "note": "(stereo not drawn)", "XC50": 835}
{"tested_on": "Plasmodium falciparum", "assay": "as §1", "assay_type": "functional, organism-based", "settings": "Plasmodium falciparum, 3D7", "units": {"XC50": "nM"}}
{"molecule": "CC1(C)[C@H]2CC[C@@H](CNc3nc(NCC(=O)Nc4ccc5ccccc5c4)nc(N4CCC(N5CCCC5)CC4)n3)[C@@H]1C2", "XC50": 1190}
{"molecule": "Cc1cccc2nc(-c3ccc(-c4ccc(CN5CCC(C(N)=O)CC5)cc4)cc3)[nH]c12", "XC50": 932}
{"molecule": "Cc1cccc2nc(-c3ccc(-c4ccc(C(=O)NCCc5cn(C)cn5)cc4)s3)[nH]c12", "XC50": 960}
{"molecule": "Fc1cccc(Nc2nc(NCc3ccc4ccsc4c3)nc(Nc3cccc(F)c3)n2)c1", "XC50": 1080}
{"molecule": "Cc1cc(-c2cnc(N)c(-c3ccc(N4CCN(C)CC4)cc3)c2)cc(C)c1O", "XC50": 1170}
{"molecule": "Cc1cccc(CC2CC(=O)N(c3ccc([N+](=O)[O-])cc3)C2=O)c1", "note": "(stereo not drawn)", "XC50": 200}
{"molecule": "CC(C)(CNCc1ccc(Cl)cc1)c1nc(-c2ccc(Cl)c(O)c2)c(-c2ccncc2)[nH]1", "XC50": 476}
{"molecule": "N#Cc1ccc2c(c1)CCN(CCC1CCC(NC(=O)/C=C/c3ccc(Cl)c(Cl)c3)CC1)CC2", "note": "(stereo not drawn)", "XC50": 422}
{"molecule": "CC(C)(C)C1CCc2nc(N)nc(N)c2C1", "note": "(stereo not drawn)", "XC50": 12.6}
{"molecule": "CCCCCCOc1ccc(C(=O)NCCCC2CCCN(CCCCCNC(=O)C=Cc3ccc(Cl)c(Cl)c3)C2)cc1", "note": "(stereo not drawn)", "XC50": 703}
{"molecule": "C[C@@H](COc1ccccc1)NCC(O)c1ccc([N+](=O)[O-])c(OCc2ccccc2)c1", "note": "(stereo partly drawn)", "XC50": 994}
{"molecule": "COc1ccc2nccc(NC(=O)OC3CCC(NCc4ccc5c(n4)NC(=O)CS5)CC3)c2c1", "note": "(stereo not drawn)", "XC50": 924}
{"molecule": "COc1ccc(-c2nc(NCc3ccccc3)c3cc(OC)c(OC)cc3n2)cc1", "XC50": 398}
{"molecule": "CCCC(=O)NC(c1cccs1)c1cc(Cl)c2cccnc2c1O", "note": "(stereo not drawn)", "XC50": 848}
{"molecule": "C=C[C@H]1CN2CC[C@H]1C[C@H]2[C@H](O)c1cc(-c2ccc(Cl)cc2)nc2ccc(OC)cc12", "XC50": 30.3}
{"molecule": "COc1cccc(NC(=O)Nc2cc(C)nc3ccccc23)c1", "XC50": 723}
{"molecule": "O=P(O)(O)Oc1c(Br)cc(Br)cc1-c1cc(Br)cc(Br)c1O", "note": "[BROMOFENOFOS]", "XC50": 173}
{"molecule": "O=C(c1ccc(O)c(-c2cc(Cl)cc(Cl)c2)c1)N(CCO)CCO", "XC50": 908}
{"molecule": "COc1ccc(-c2ccc(NC(=O)c3cccc(Cl)c3)cc2)cc1CN1CCCC1", "XC50": 705}
{"molecule": "O=C(/C=C/c1ccc([N+](=O)[O-])cc1)NC1CCC(CN2CCC(c3c[nH]c4ccccc34)CC2)CC1", "note": "(stereo not drawn)", "XC50": 794}
{"molecule": "O=C(Nc1ccc(Cl)cn1)c1sc2ccccc2c1O", "XC50": 1040}
{"molecule": "N#Cc1cccc(CNC(=O)c2cccc(Nc3ccnc4ccc(F)cc34)c2)c1", "XC50": 987}
{"molecule": "CN(Cc1c(Cl)cnn1C)S(=O)(=O)c1ccc2ccccc2c1", "XC50": 1040}
{"molecule": "Nc1c2c(nc3ccc(C(=O)Nc4cc(I)c(O)c(I)c4)cc13)CCCC2", "XC50": 1010}
{"molecule": "O=C(NC1CCC(CN2CCC(c3c[nH]c4ccccc34)CC2)CC1)c1cc(-c2ccccc2Cl)n(-c2cccc(Cl)c2)n1", "note": "(stereo not drawn)", "XC50": 851}
{"molecule": "O=C(Nc1ccc2c(c1)CCNCC2)c1ccc(-c2ccc(Cl)cc2)cc1", "XC50": 814}
{"molecule": "O=C(Nc1ccc(F)cc1)c1cnc(N2CCN(c3ccncc3)CC2)c(Cl)c1", "XC50": 735}
{"molecule": "N#Cc1cccc(NC(=O)Nc2cccc(-c3cccc(-c4nc5cc(F)ccc5[nH]4)c3)c2)c1", "XC50": 225}
{"molecule": "CCc1cn2c3c(cc(C(=O)N[C@@H](Cc4ccccc4)[C@H](O)CNCc4ccc(C)cc4)cc13)N(C)S(=O)(=O)CC2", "XC50": 547}
{"molecule": "CC1(C)CCNc2cc(NC(=O)c3ccc(-c4ncccc4C(F)(F)F)cc3)ccc21", "XC50": 903}
{"molecule": "CC1CCC2(CC1)NC(N)=NC(=N)N2OCCCCCCCCO", "note": "(stereo not drawn)", "XC50": 147}
{"molecule": "Cc1cccn2c(=O)c3cc(C(=O)NC(C)c4ccccc4)c(=N)n(CCN4CCOCC4)c3nc12", "note": "(stereo not drawn)", "XC50": 823}
{"molecule": "CN(/N=C/C=C/c1ccc(Cl)cc1)c1nc(NCCc2ccc(O)cc2)nc(N2CCNCC2)n1", "XC50": 873}
{"molecule": "Cc1cc(N2CCCC2)nc(Nc2ccc(NC(=O)Cc3ccccc3)cc2)n1", "XC50": 606}
{"molecule": "N#Cc1ccc(-c2ccc(C(=O)NCCCCN3CC=C(c4ccc5c(c4OCC4CC4)CCCC5)CC3)cc2)cc1", "XC50": 623}
{"molecule": "O=C(NCCN1CCCC1)c1cccc(-c2ccc(-c3nc4cc(C(F)(F)F)ccc4[nH]3)cc2)c1", "XC50": 752}
{"molecule": "CC(NC(=O)c1cc(-c2ccccc2)nc2c1cnn2C(C)C)C1CC1", "note": "(stereo not drawn)", "XC50": 1280}
{"molecule": "CSC1=NC(=Nc2c(C)cccc2C)C2(CCCCC2)N1c1ccccc1Cl", "XC50": 817}
{"molecule": "O=c1c2sc(-c3ccc(Cl)cc3)cc2ncn1Cc1ccc(OCCN2CCCC2)c2ccccc12", "XC50": 252}
{"molecule": "OCc1c(Cl)cc(Cl)cc1CNCCCNc1nc2ccccc2[nH]1", "XC50": 745}
{"molecule": "Cc1ccc(C(=O)Nc2cccc([N+](=O)[O-])c2)cc1S(=O)(=O)N1CC(C)CC(C)C1", "note": "(stereo not drawn)", "XC50": 794}
{"molecule": "COc1ccc2nccc([C@@H](O)CN3CCC(NC(=O)c4cc5c(Cl)cc(Cl)cc5[nH]4)CC3)c2c1", "XC50": 233}
{"molecule": "CC(=O)N1CCN(c2ccc(NC(=O)c3oc(-c4ccccc4)nc3C(F)(F)F)cn2)CC1", "XC50": 840}
{"molecule": "COCCNCc1ccc(-c2ccc(CN(C(=O)Nc3ccccc3)C3CCN(Cc4ccccc4)CC3)cc2)cc1", "XC50": 746}
{"molecule": "Cc1nc(-c2nc(N3CCC(O)CC3)ncc2-c2ccsc2)sc1C", "XC50": 939}
{"molecule": "COc1cccc(OC)c1CN1CCC(N(C)CCCCCCCCN2CCC(OC(=O)Nc3ccccc3-c3ccccc3)CC2)CC1", "XC50": 458}
{"molecule": "C=CCc1cc(C2CCN(CCCCNC(=O)c3ccc(-c4ccc(C#N)cc4)cc3)CC2)c(OCC(N)=O)c2c1CCCC2", "XC50": 799}
{"molecule": "CS(=O)(=O)CCOCc1ccc(-c2ccc3ncnc(Nc4ccc(OCc5cccc(F)c5)c(Cl)c4)c3c2)o1", "XC50": 803}
{"molecule": "CC1CCCCN1CCCNc1ncc2c(-c3ccc(NC(=O)Nc4cc(C(F)(F)F)ccc4F)c(F)c3)nn(C)c2n1", "note": "(stereo not drawn)", "XC50": 263}
{"molecule": "CCOC(=O)CCCCOc1c(OC)cc(Cc2cnc(N)nc2N)cc1OC", "XC50": 29.9}
{"molecule": "CN1CCN(c2nsc3ccc(-c4ccc(NC(=O)Nc5ccccc5)cc4)cc23)CC1", "XC50": 180}
{"molecule": "N#Cc1ccc2c(c1)CCN(CCC1CCC(NC(=O)/C=C/c3c[nH]c4ccc(F)cc34)CC1)CC2", "note": "(stereo not drawn)", "XC50": 692}
{"molecule": "Cc1c(C)n(C2CCCC2)c2ncnc(OC3CCN(CC(=O)NC4CC4)CC3)c12", "XC50": 790}
{"molecule": "CCCCCn1c(Sc2ccc(C#N)c([N+](=O)[O-])c2)nnc1-c1ccc(OC)cc1", "XC50": 1140}
{"molecule": "Cc1ccc(O)cc1C[C@@H]1C(=O)CC[C@@]2(C)[C@H]1CC[C@]2(C)O", "XC50": 957}
{"molecule": "O=C(/C=C/c1cc(C(F)(F)F)ccc1F)N1CCC(CN2CCC(c3c[nH]c4ccccc34)CC2)CC1", "XC50": 994}
{"molecule": "COc1cc(Cc2cnc(N)nc2N)ccc1OCc1ccc(-c2ccccc2C#N)cc1", "XC50": 940}
{"molecule": "Cc1nc2c(s1)c(=O)cc(CCc1cccc(F)c1F)n2CC(=O)N(Cc1ccc(-c2ccc(C(F)(F)F)cc2)cc1)C1CCN(C(C)C)CC1", "XC50": 767}
{"molecule": "CC12CCC(CN(CC(O)Cn3c4ccccc4c4cc(I)ccc43)C1)C2(C)C", "note": "(stereo not drawn)", "XC50": 1160}
{"molecule": "CCN(CCO)CCc1cccc(Nc2nccc(-c3c(-c4ccc(NC(=O)N(CC)CC)cc4)nn4ccccc34)n2)c1", "XC50": 1110}
{"molecule": "CO/C(=C\\C=C\\c1cc2cc(Cl)c(Cl)cc2[nH]1)C(=O)NCCCCN1CCN(c2ccccc2OC)CC1", "XC50": 514}
{"molecule": "CCn1c(SCc2ccccc2)nc2c1c(=O)[nH]c(=O)n2C", "XC50": 241}
{"molecule": "C[C@H](NC(=O)c1c(CN2CCC(NC(=O)CC(C)(C)C)CC2)c(-c2cccs2)nc2ccccc12)C1CCCCC1", "XC50": 947}
{"molecule": "Cc1sc2ccc(Cl)cc2c1S(=O)(=O)Nc1ccc2nccc(N3CC(C)NC(C)C3)c2c1", "note": "(stereo not drawn)", "XC50": 114}
{"molecule": "N#Cc1cccc(Nc2nccc(Nc3ccc(Oc4ccccc4)cc3)n2)c1", "XC50": 830}
{"molecule": "Cc1cccc(CNc2ncc(C)c(NCCC(=O)Nc3ccccc3)n2)c1", "XC50": 1150}
{"molecule": "O=[N+]([O-])c1cccc(C=NNc2nc(=Nc3ccccc3)[nH]c(=Nc3ccccc3)[nH]2)c1", "XC50": 968}
